Data published in US10077261B2, “Imidazolin-5-one derivative useful as FASN inhibitors for the treatment of cancer” (Janssen Pharmaceutica NV, priority 2012, dated 2018).

Assays:
A2780 ovarian cells [1] = assay: A2780 ovarian cell proliferation assay in lipid reduced medium, without palmitate (MTT); type: cell-based; settings: Homo sapiens, A2780, 96 h; read-out: pIC50 A2780 Ovarian Cell, Without Palmitate (converted)
A2780 ovarian cells [2] = assay: A2780 ovarian cell proliferation assay in lipid reduced medium, with palmitate (MTT); type: cell-based; settings: Homo sapiens, A2780, 96 h; read-out: pIC50 A2780 Ovarian Cell, With Palmitate (converted)
Summary of the method: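 Seeded cells were switched next day to lipid-reduced serum, exposed to compound and 25 μM palmitate complexed with fatty-acid-free BSA, and incubated 96 h. Proliferation was then determined by MTT absorbance at 544 nm, with a best-fit curve of signal against concentration.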

[3] = biological target: T1, hFASN enzyme (full length) (Homo sapiens, UniProt P49327); assay: Fatty Acid Synthase (FASN) inhibition scintillation proximity assay; type: biochemical; settings: for inhibition at 10 µM: read-out: Human FASN % inhibition @ 10 μM, 10 μM test compound; for IC50: read-out: Human FASN pIC50 (converted)
T1 construct: 10 μL hFASN enzyme (full length, 300 ng, purified in house); made in house
T1 sequence (P49327 whole entry): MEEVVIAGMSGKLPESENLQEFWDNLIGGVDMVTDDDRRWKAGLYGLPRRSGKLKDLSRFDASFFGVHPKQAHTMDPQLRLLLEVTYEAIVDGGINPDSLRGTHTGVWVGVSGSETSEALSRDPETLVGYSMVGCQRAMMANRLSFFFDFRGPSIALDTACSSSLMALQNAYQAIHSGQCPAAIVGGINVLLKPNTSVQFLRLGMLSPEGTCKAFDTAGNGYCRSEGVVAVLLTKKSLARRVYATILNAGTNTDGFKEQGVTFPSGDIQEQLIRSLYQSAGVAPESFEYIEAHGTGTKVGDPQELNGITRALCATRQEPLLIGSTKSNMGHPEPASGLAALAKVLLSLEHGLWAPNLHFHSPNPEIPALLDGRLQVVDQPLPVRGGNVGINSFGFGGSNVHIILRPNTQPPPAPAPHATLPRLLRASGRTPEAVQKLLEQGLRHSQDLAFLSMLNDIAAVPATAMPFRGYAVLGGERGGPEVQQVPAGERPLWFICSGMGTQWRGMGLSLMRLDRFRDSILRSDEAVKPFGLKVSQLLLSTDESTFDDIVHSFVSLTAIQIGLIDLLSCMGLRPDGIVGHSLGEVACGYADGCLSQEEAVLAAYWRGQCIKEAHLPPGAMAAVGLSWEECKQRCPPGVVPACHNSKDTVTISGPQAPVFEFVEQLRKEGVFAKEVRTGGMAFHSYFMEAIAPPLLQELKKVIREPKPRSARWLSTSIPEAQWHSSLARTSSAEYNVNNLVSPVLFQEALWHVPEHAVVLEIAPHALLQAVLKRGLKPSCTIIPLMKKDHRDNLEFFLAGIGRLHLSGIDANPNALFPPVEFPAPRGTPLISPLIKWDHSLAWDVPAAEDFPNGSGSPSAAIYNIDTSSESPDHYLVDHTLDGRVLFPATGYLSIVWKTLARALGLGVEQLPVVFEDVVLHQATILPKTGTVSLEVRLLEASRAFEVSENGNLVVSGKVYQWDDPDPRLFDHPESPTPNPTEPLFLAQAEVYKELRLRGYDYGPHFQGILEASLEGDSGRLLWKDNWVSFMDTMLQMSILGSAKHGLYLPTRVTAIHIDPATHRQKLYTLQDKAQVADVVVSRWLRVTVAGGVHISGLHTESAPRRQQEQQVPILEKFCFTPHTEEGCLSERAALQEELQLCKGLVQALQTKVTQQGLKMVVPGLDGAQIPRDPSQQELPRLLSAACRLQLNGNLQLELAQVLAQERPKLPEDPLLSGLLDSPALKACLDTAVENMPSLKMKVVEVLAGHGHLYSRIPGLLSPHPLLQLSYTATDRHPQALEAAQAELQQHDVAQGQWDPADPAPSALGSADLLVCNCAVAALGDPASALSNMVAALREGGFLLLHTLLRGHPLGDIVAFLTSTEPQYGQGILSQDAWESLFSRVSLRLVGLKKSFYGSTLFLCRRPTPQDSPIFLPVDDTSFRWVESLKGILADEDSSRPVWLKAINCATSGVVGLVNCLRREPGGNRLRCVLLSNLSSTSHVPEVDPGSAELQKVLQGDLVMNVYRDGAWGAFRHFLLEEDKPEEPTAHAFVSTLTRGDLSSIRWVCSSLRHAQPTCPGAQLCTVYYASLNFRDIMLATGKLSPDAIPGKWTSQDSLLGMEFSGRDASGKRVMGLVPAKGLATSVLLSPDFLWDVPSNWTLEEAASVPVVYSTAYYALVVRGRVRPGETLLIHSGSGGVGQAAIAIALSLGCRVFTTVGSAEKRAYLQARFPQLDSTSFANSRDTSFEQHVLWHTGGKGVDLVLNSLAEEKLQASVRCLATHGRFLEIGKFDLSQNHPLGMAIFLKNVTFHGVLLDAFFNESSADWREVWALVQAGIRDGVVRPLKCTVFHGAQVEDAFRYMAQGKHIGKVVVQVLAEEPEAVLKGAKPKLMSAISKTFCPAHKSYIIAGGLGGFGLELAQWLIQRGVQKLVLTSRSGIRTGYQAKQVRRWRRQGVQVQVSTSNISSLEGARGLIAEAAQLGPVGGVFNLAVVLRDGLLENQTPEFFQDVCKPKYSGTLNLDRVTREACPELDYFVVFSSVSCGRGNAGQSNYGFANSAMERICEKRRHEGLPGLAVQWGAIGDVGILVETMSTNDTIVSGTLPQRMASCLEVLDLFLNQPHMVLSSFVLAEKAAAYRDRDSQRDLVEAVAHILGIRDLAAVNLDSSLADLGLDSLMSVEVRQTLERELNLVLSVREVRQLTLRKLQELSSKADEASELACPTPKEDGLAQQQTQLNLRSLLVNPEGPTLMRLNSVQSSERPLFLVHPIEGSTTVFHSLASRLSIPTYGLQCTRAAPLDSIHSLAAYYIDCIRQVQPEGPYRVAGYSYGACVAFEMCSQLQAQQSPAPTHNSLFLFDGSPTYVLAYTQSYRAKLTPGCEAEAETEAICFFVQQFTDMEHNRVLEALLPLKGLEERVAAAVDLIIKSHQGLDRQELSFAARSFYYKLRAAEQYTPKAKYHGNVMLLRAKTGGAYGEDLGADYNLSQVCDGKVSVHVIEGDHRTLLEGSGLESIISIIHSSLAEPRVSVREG
Summary of the method: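 Compounds at 0.01–30 μM were mixed with 300 ng purified full-length enzyme in 100 mM KH2PO4 pH 7.5, 1 mM DTT. Substrates ³H-acetyl-CoA and malonyl-CoA were then converted, and bead addition stopped the reaction. Signal was normalised to low and high plate controls and fitted by 4-parameter nonlinear regression.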

IC50 (A2780 ovarian cells [1])	IC50 (A2780 ovarian cells [2])	inhibition at 10 µM [3]	IC50 [3]	Structure (SMILES)
3.24 µM	6.61 µM	83%	1.35 µM	Cc1cc(-c2ccc3ccc(Br)cc3n2)ccc1C1=NC2(CC2)C(=O)N1CC1CN(C(=O)C2(C)CC2)C1 [compound 595, 5-[4-(7-Bromoquinolin-2-yl)-2-methylphenyl]-6-({1-[(1-methylcyclopropyl)carbonyl]azetidin-3-yl}methyl)-4,6-diazaspiro[2.4]hept-4-en-7-one]
3.63 µM	4.37 µM	65%	~4.27 µM	Cc1cc(Cl)c2ccc(-c3ccc(C4=NC5(CC5)C(=O)N4CC4CN(C(=O)C5(C)CC5)C4)c(C)c3)cc2n1 [compound 597, 5-[4-(4-Chloro-2-methylquinolin-7-yl)-2-methylphenyl]-6-({1-[(1-methylcyclopropyl)carbonyl]azetidin-3-yl}methyl)-4,6-diazaspiro[2.4]hept-4-en-7-one]
~3.31 µM	> 10 µM	87%	1.15 µM	Cc1ccc2c(-c3ccc(C4=NC5(CC5)C(=O)N4CC4CN(C(=O)C5(C)CC5)C4)c(C)c3)cccc2n1 [compound 603, 6-({1-[(1-Methylcyclopropyl)carbonyl]azetidin-3-yl}methyl)-5-[2-methyl-4-(2-methylquinolin-5-yl)phenyl]-4,6-diazaspiro[2.4]hept-4-en-7-one]
4.79 µM	6.31 µM	62%	6.61 µM	Cc1cc(-c2cc(C)c3ccc(Br)cc3n2)ccc1C1=NC2(CC2)C(=O)N1CC1CN(C(=O)C2(C)CC2)C1 [compound 605, 5-[4-(7-Bromo-4-methylquinolin-2-yl)-2-methylphenyl]-6-({1-[(1-methylcyclopropyl)carbonyl]azetidin-3-yl}methyl)-4,6-diazaspiro[2.4]hept-4-en-7-one]
2.88 µM	4.57 µM	87%	1.05 µM	Cc1cc(-c2ccc3nn(C)c(C#N)c3c2)ccc1C1=NC2(CC2)C(=O)N1CC1CN(C(=O)C2CC2)C1 [compound 610]
> 10 µM	> 10 µM	46%	~10 µM	N#Cc1ccc2ccc(-c3ccc(C4=NC5(CC5)C(=O)N4CC4CN(C(=O)C5CC5)C4)cc3)cc2n1 [compound 611, 7-[4-(6-{[1-(Cyclopropylcarbonyl)azetidin-3-yl]methyl}-7-oxo-4,6-diazaspiro[2.4]hept-4-en-5-yl)phenyl]quinolin-2-carbonitrile]
3.8 µM	> 10 µM	74%	2.04 µM	Cn1ncc2cc(-c3ccc(C4=NC5(CC5)C(=O)N4CC4CN(C(=O)C5CC5)C4)cc3Cl)ccc21 [compound 612, 5-[3-Chloro-4-(1-methyl-1H-indazol-5-yl)phenyl]-6-{[1-(cyclopropylcarbonyl)azetidin-3-yl]methyk}-4,6-diazaspiro[2.4]hept-4-en-7-one]
~4.79 µM	> 10 µM	71%	3.98 µM	Cc1cc(-c2ccc3ccc(C(F)(F)F)nc3c2)ccc1C1=NC2(CC2)C(=O)N1CC1CN(C(=O)C2(C)CC2)C1 [compound 620, 6-({1-[(1-Methylcyclopropyl)carbonyl]azetidin-3-yl}methyl)-5-{2-methyl-4-[2-(trifluoromethyl)quinolin-7-yl]phenyl}-4,6-diazaspiro[2.4]hept-4-en-7-one]
1.45 µM	6.61 µM	76%	2.24 µM	Cc1cc(-c2ccc3c(C)cc(Cl)nc3c2)ccc1C1=NC2(CC2)C(=O)N1CC1CN(C(=O)C2(C)CC2)C1 [compound 624, 5-[4-(2-Chloro-4-methylquinolin-7-yl)-2-methylphenyl]-6-({1-[(1-methylcyclopropyl)carbonyl]azetidin-3-yl}methyl)-4,6-diazaspiro[2.4]hept-4-en-7-one]
7.76 µM	> 10 µM	55%	7.41 µM	Cc1cc(-c2cc(Cl)c3cn[nH]c3c2)ccc1C1=NC2(CC2)C(=O)N1CC1CN(C(=O)C2CC2)C1 [compound 629, 5-[4-(4-Chloro-1H-indazol-6-yl)-2-methylphenyl]-6-{[1-(cyclopropylcarbonyl)azetidin-3-yl]methyl}-4,6-diazaspiro[2.4]hept-4-en-7-one]
4.07 µM	> 10 µM	67%	3.16 µM	O=C(C1CC1)N1CC(CN2C(=O)C3(CC3)N=C2c2ccc(-c3cc(C(F)(F)F)ccc3F)cc2F)C1 [compound 630, 6-{[1-(Cyclopropylcarbonyl)azetidin-3-yl]methyl}-5-[2′,3-difluoro-5′-(trifluoromethyl)biphenyl-4-yl]-4,6-diazaspiro[2.4]hept-4-en-7-one]

More lines, now with the values behind:

Structure (SMILES)	IC50 (A2780 ovarian cells [1])	IC50 (A2780 ovarian cells [2])	inhibition at 10 µM [3]	IC50 [3]
Cn1ncc2cc(-c3ccc(C4=NC5(CC5)C(=O)N4CC4CN(C(=O)C5(O)CC5)C4)c(F)c3)ccc21 [compound 572, 5-[2-Fluoro-4-(1-methyl-1H-indazol-5-yl)phenyl]-6-({1-[(1-hydroxycyclopropyl)carbonyl]azetidin-3-yl}methyl)-4,6-diazaspiro[2.4]hept-4-en-7-one]	0.0525 µM	> 10 µM	87%	0.135 µM
Cc1cn(C)c2ccc(-c3ccc(C4=NC5(CC5)C(=O)N4CC4CN(C(=O)C5CC5)C4)c(F)c3)cc12 [compound 573, 6-{[1-(Cyclopropylcarbonyl)azetidin-3-yl]methyl}-5-[4-(1,3-dimethyl-1H-indol-5-yl)-2-fluorophenyl]-4,6-diazaspiro[2.4]hept-4-en-7-one]	0.0537 µM	1.38 µM	88%	0.166 µM
Cc1ccc2ccc(-c3ccc(C4=NC5(CC5)C(=O)N4CC4CN(C(=O)C5CC5)C4)c(F)c3)cc2n1 [compound 574, 6-{[1-(Cyclopropylcarbonyl)azetidin-3-yl]methyl}-5-[2-fluoro-4-(2-methylquinolin-7-yl)phenyl]-4,6-diazaspiro[2.4]hept-4-en-7-one]	0.871 µM	5.75 µM	82%	0.813 µM
Cc1ccc2c(-c3ccc(C4=NC5(CC5)C(=O)N4CC4CN(C(=O)C5CC5)C4)c(F)c3)cccc2n1 [compound 575, 6-{[1-(Cyclopropylcarbonyl)azetidin-3-yl]methyl}-5-[2-fluoro-4-(2-methylquinolin-5-yl)phenyl]-4,6-diazaspiro[2.4]hept-4-en-7-one]	~7.94 µM	> 10 µM	52%	8.13 µM
Cn1nccc1-c1ccc(-c2ccc(C3=NC4(CC4)C(=O)N3CC3CN(C(=O)C4(O)CC4)C3)c(F)c2)cc1 [compound 577, 5-[3-Fluoro-4′-(1-methyl-1H-pyrazol-5-yl)biphenyl-4-yl]-6-({1-[(1-hydroxycyclopropyl)carbonyl]azetidin-3-yl}methyl)-4,6-diazaspiro[2.4]hept-4-en-7-one]	2.45 µM	> 10 µM	67%	2.34 µM
O=C(O)c1ccc2ccc(-c3ccc(C4=NC5(CC5)C(=O)N4CC4CN(C(=O)C5CC5)C4)cc3)cc2n1 [compound 583, 7-[4-(6-{[1-(Cyclopropylcarbonyl)azetidin-3-yl]methyl}-7-oxo-4,6-diazaspiro[2.4]hept-4-en-5-yl)phenyl]quinoline-2-carboxylic acid]	2.57 µM	> 10 µM	74%	3.98 µM
Cc1cc(-c2ccc3nn(C)c(CO)c3c2)ccc1C1=NC2(CC2)C(=O)N1CC1CN(C(=O)C2CC2)C1 [compound 587, 6-{[1-(Cyclopropylcarbonyl)azetidin-3-yl]methyl}-5-{4-[3-(hydroxymethyl)-2-methyl-2H-indazol-5-yl]-2-methylphenyl}-4,6-diazaspiro[2.4]hept-4-en-7-one]	~8.51 µM	> 10 µM	70%	3.31 µM
COCc1c2cc(-c3ccc(C4=NC5(CC5)C(=O)N4CC4CN(C(=O)C5CC5)C4)c(C)c3)ccc2nn1C [compound 589, 6-{[1-(Cyclopropylcarbonyl)azetidin-3-yl]methyl}-5-{4-[3-(methoxymethyl)-2-methyl-2H-indazol-5-yl]-2-methylphenyl}-4,6-diazaspiro[2.4]hept-4-en-7-one]	5.62 µM	> 10 µM	52%	9.55 µM
Cc1cc(-c2ccc3c(Cl)nn(C)c3c2)ccc1C1=NC2(CC2)C(=O)N1CC1CN(C(=O)C2CC2)C1 [compound 590, 5-[4-(3-Chloro-1-methyl-1H-indazol-6-yl)-2-methylphenyl]-6-{[1-(cyclopropylcarbonyl)azetidin-3-yl]methyl}-4,6-diazaspiro[2.4]hept-4-en-7-one]	3.31 µM	> 10 µM	80%	1.74 µM
O=C(C1CC1)N1CC(CN2C(=O)C3(CC3)N=C2c2ccc(-c3cc(Cl)c4cn[nH]c4c3)cc2F)C1 [compound 592, 5-[4-(4-Chloro-1H-indazol-6-yl)-2-fluorophenyl]-6-{[1-(cyclopropylcarbonyl)azetidin-3-yl]methyl}-4,6-diazaspiro[2.4]hept-4-en-7-one]	5.25 µM	> 10 µM	70%	2.95 µM
Cc1cc(-c2ccc(C3(C#N)CC3)cc2F)ccc1C1=NC2(CC2)C(=O)N1CC1CN(C(=O)C2(C)CC2)C1 [compound 593]	6.76 µM	9.55 µM	56%	7.08 µM
